Data: patent publication US20130296224A1, “METHOD FOR TREATMENT OF INFLAMMATORY DISEASE AND DISORDER” (HealOr Ltd., priority 2011, published 2013)
The star is where a group is joined. Palmitoyl = CCCCCCCCCCCCCCCC(=O)*; Myristoyl = CCCCCCCCCCCCCC(=O)*

What was measured:
activated keratinocytes = experiment: Cytokine secretion in LPS, TNFα or IL-17 activated keratinocytes treated with peptide PKCα inhibitors (ELISA); format: cell-based, BALB/C mice; conditions: for cytokine secretion in keratinocytes stimulated by LPS, TNFα, or IL-17: medium collected after 48 hr, ELISA; for cytokine secretion from LPS and TNFα activated keratinocytes: FIGS. 19 to 23; for cytokine secretion from IL-17A activated keratinocytes: FIGS. 24 to 27
Procedure: To determine their effects, keratinocytes were derived from newborn BALB/C mice skin. The cells were incubated for 5 days in 24 wells plate. Cells were then incubated with PBS −/− as control or stimulated by LPS, TNFα, or IL-17. PKCα inhibitors were added as indicated. Medium containing secreted cytokines was collected after 48 hr and analyzed using ELISA. FIG. 50 is a tabular summary of cytokine secretion.

EAE mice = experiment: Experimental allergic encephalomyelitis (EAE), MOG35-55/CFA immunized mice; format: in vivo, C57BL/6J mice; design: EAE severity / average group score at the end of the experiment (day 42): dose or concentration left out as unconfirmed; conditions: for EAE score on the initial day (in brackets): scale 0-6; for Number of dead mice during 49 days: n=7 per group; for Score on day 18 / Score on day 29 / Score on day 37: EAE scale 0-6
[1] = system: keratinocytes stimulated by TNFα; experiment: Cytokine secretion in stimulated keratinocytes treated with PKCδ activator (ELISA); format: cell-based, BALB/C mice; conditions: medium collected after 48 hr
Procedure: (§1) PKCδ activators were also shown to have an anti-inflammatory effect on keratinocytes and splenocytes. Keratinocytes were derived from newborn BALB/C mice skin. The cells were incubated for 5 days in 24 wells plate. Cells were then incubated with PBS−/− as control or stimulated by LPS or TNFα. The PKCδ inhibitor DAP-1 (SEQ ID NO: 34) was added. Medium containing secreted cytokines was collected after 48 hr and analyzed using ELISA. FIG. 43 is a tabular summary showing cytokine secretion in splenocytes stimulated with LPS. FIG. 44 is a tabular summary of cytokine secretion in keratinocytes stimulated by TNFα.

[2] = system: splenocytes stimulated with LPS; experiment: Cytokine secretion in splenocytes stimulated with LPS, treated with PKCδ activator; format: cell-based
Procedure: as §1

macrophages (Iba-1) = experiment: Macrophage infiltration in skin wound (Iba-1 staining); format: in vivo, C57BL/6J mouse; conditions: daily treatment, five days post-wounding
Procedure: The effect of MPDY-1 on macrophage infiltration was also shown by Iba-1 staining. Iba-1 is a general marker for macrophages. […] As above, a two-cm longitudinal incision was done on the upper back of a C57BL/6J mouse. Following wounding, a sterile pad was sutured to the mouse's skin. Animals were treated daily with MPDY-1 (n=6). Five days post-wounding, when inflammatory phase reaches its peak, the mice were sacrificed, skin tissues were embedded in paraffin and immunohistochemical staining was performed utilizing anti-Iba-1 antibodies.

[3] = system: activated macrophages (MAC-2); experiment: Macrophage activation in skin wound (MAC-2 staining); format: in vivo, C57BL/6J mouse; conditions: daily treatment, 5 days; control vs 10 μg p=0.0028
Procedure: The effect of MPDY-1 on macrophage activation was also shown by MAC-2 staining. MAC-2 is a specific marker for activated macrophages. […] A two-cm longitudinal incision was done as described above. Animals were treated daily with DPBS^−/− (Control) or MPDY-1 in the specified concentrations (n=6). After 5 days immunohistochemical staining was performed utilizing anti-MAC-2 antibodies. Bar […]. (*p(control Vs. MPDY-1 10 μg)=0.0028).

IKK = experiment: TNFα induced IKK activation in keratinocytes (Western blot phospho-IKKa/b Ser176/180); format: cell-based, Murine; conditions: 1 hour pretreatment, TNFα 35 ng/ml 15 minutes
Procedure: Murine primary keratinocytes were grown for 4 days to full confluence in Low Ca^+2 MEM. Cells were pretreated with designated concentration of MPDY-1 as described in the figure for 1 hour, prior to TNFα induction. Following MPDY-1 pretreatment, cells were incubated with TNFα 35 ng/ml for 15 minutes. Reaction was stopped by adding ice-cold dPBS−/− and keratinocytes were homogenized in RIPA buffer. Samples were subjected to SDS PAGE Western Blot analysis, utilizing phospho-IKKa/b (Ser176/180 antibody).

[4] = system: histamine induced pruritus; experiment: Histamine prick test model of pruritus; format: in vivo, healthy volunteers; conditions: topical application on forearm, photographs at 0, 10, 20, 30 minutes
Procedure: Forearms of individual subjects were injected with histamine solution and placebo. The formulation of Example 4 was topically applied with MPDY-1 at various concentrations and pruritus was assessed over a time course as shown in FIGS. 39-42.
This test was performed by placing a drop of a solution containing a possible allergen on the skin, and a series of scratches or needle pricks allow the solution to enter the skin. The extract enters into the outer layer of the skin (epidermis) using a fine needle (such as a. 26G disposable needle). This testing is not painful, and generally there is no bleeding involved since the needle only scratches the surface of the skin. If the skin develops a red, raised itchy area (called a wheal), it is as a result of allergic reaction to that allergen. This is called a positive reaction. A drop of extract is introduced through a fine needle (such as a No. 26 disposable needle). The test causes no discomfort and minimal trauma so that controls and negative test show only the site of the prick; if anything.
26G needles were utilized to introduce histamine stock (Histatrol Positive Control Histamine, 1 mg/ml, code #HIST14999V, Trupharm). The test was conducted on healthy volunteers in a double-blind, randomized test. The formulations were applied on the forearms. […]

[5] = 0.1 mg/kg i.p. three times a week
[6] = 1 mg/kg i.p. three times a week

H-Phe-Ala-Arg-Lys-Gly-Ala-Leu-Arg-Gln-OH (H-FARKGALRQ-OH) [AWOT-1]
cytokine secretion in keratinocytes stimulated by LPS, TNFα, or IL-17 (activated keratinocytes): effective in decreasing cytokine secretion

Palmitoyl-Phe-Ala-Arg-Lys-Gly-Ala-Leu-Arg-Gln-OH-acetate salt (Palmitoyl-FARKGALRQ-OH; also: acetate salt) [PPDY-1]
cytokine secretion in keratinocytes stimulated by LPS, TNFα, or IL-17 (activated keratinocytes): effective in decreasing cytokine secretion

H-Phe-Ala-Arg-Lys-Gly-Ala-Leu-Arg-Gln-OH-acetate salt (H-FARKGALRQ-OH; also: acetate salt) [PDY-1]
cytokine secretion from LPS and TNFα activated keratinocytes (activated keratinocytes): decrease cytokine secretion
cytokine secretion from IL-17A activated keratinocytes (activated keratinocytes): decrease cytokine secretion

Myristoyl-Thru-Arg-Lys-Arg-Gln-Arg-Ala-Met-Arg-Arg-Arg-Val-His-Gln-Ile-Asn-Gly-OH (Myristoyl-TRKRQRAMRRRVHQING-OH; SMILES CCCCCCCCCCCCCC(=O)N[C@H](C(=O)N[C@@H](CCCNC(=N)N)C(=O)N[C@@H](CCCCN)C(=O)N[C@@H](CCCNC(=N)N)C(=O)N[C@@H](CCC(N)=O)C(=O)N[C@@H](CCCNC(=N)N)C(=O)N[C@@H](C)C(=O)N[C@@H](CCSC)C(=O)N[C@@H](CCCNC(=N)N)C(=O)N[C@@H](CCCNC(=N)N)C(=O)N[C@@H](CCCNC(=N)N)C(=O)N[C@H](C(=O)N[C@@H](Cc1c[nH]cn1)C(=O)N[C@@H](CCC(N)=O)C(=O)N[C@H](C(=O)N[C@@H](CC(N)=O)C(=O)NCC(=O)O)[C@@H](C)CC)C(C)C)[C@@H](C)O) [MPE-1]
EAE severity (EAE mice): reduced EAE severity
The initial day (first illness signs) (EAE mice; [5]): 11 days
EAE score on the initial day (in brackets) (EAE mice; [5]): 0.429
The initial day (first illness signs) (EAE mice; [6]): 10 days
Number of dead mice during 49 days (EAE mice; 1 mg/kg i.p.): 4
EAE score on the initial day (in brackets) (EAE mice; 1 mg/kg i.p.): 0.429
average group score at the end of the experiment (day 42) (EAE mice; control group 2.86): 2.00

Myristoyl-Phe-Ala-Arg-Lys-Gly-Ala-Leu-OH (Myristoyl-FARKGAL-OH; SMILES CCCCCCCCCCCCCC(=O)N[C@@H](Cc1ccccc1)C(=O)N[C@@H](C)C(=O)N[C@@H](CCCNC(=N)N)C(=O)N[C@@H](CCCCN)C(=O)NCC(=O)N[C@@H](C)C(=O)N[C@@H](CC(C)C)C(=O)O) [MPDY-1 sh]
cytokine secretion from LPS and TNFα activated keratinocytes (activated keratinocytes): decrease cytokine secretion
cytokine secretion from IL-17A activated keratinocytes (activated keratinocytes): decrease cytokine secretion

H-Thr-Leu-Asn-Pro-Gln-Trp-Glu-Ser-OH (H-TLNPQWES-OH) [AIP-1]
cytokine secretion in keratinocytes stimulated by LPS, TNFα, or IL-17 (activated keratinocytes): effective in decreasing cytokine secretion

H-His-Phe-Glu-Asp-Trp-Ile-Asp-His-Phe-Glu-Asp-Trp-Ile-Asp-OH (H-HFEDWIDHFEDWID-OH) [DAP-1]
inflammatory cytokine secretion in keratinocytes [1]: significantly decease inflammatory cytokine secretion
inflammatory cytokine secretion in splenocytes [2]: significantly decease inflammatory cytokine secretion

Myristoyl-Phe-Ala-Arg-Lys-Gly-Ala-Leu-OH-trifluoracetate salt (Myristoyl-FARKGAL-OH; also: trifluoracetate salt) [AIP-2]
cytokine secretion in keratinocytes stimulated by LPS, TNFα, or IL-17 (activated keratinocytes): effective in decreasing cytokine secretion

CRAMP: comparison treatment in the EAE study (0.2 and 2 mg/kg); not further described (ISRLAGLLRKGGEKIGEKLKKIGQKIKNFFQKLVPQPE; Cathelin-related antimicrobial peptide; UniProt P51437 135-172, looked up) [reference compound]
The initial day (first illness signs) (EAE mice; 0.2 mg/kg i.p. three times a week): 10 days
Score on day 18 (EAE mice; 0.2 mg/kg i.p.): 3.214
Score on day 29 (EAE mice; 0.2 mg/kg i.p.): 2.000
Score on day 37 (EAE mice; 0.2 mg/kg i.p.): 2.571
Number of dead mice during 49 days (EAE mice; 0.2 mg/kg i.p.): 2
EAE score on the initial day (in brackets) (EAE mice; 0.2 mg/kg i.p.): 0.571
The initial day (first illness signs) (EAE mice; 2 mg/kg i.p. three times a week): 11 days
Score on day 18 (EAE mice; 2 mg/kg i.p.): 2.643
Score on day 29 (EAE mice; 2 mg/kg i.p.): 2.643
Score on day 37 (EAE mice; 2 mg/kg i.p.): 2.143
Number of dead mice during 49 days (EAE mice; 2 mg/kg i.p.): 2
EAE score on the initial day (in brackets) (EAE mice; 2 mg/kg i.p.): 0.143

Myristoyl-Phe-Ala-Arg-Lys-Gly-Ala-Leu-Arg-Gln-OH (Myristoyl-FARKGALRQ-OH; SMILES CCCCCCCCCCCCCC(=O)N[C@@H](Cc1ccccc1)C(=O)N[C@@H](C)C(=O)N[C@@H](CCCNC(=N)N)C(=O)N[C@@H](CCCCN)C(=O)NCC(=O)N[C@@H](C)C(=O)N[C@@H](CC(C)C)C(=O)N[C@@H](CCCNC(=N)N)C(=O)N[C@@H](CCC(N)=O)C(=O)O) [MPDY-1]
macrophage infiltration (Iba-1 positive cells per field) (macrophages (Iba-1)): dose dependent effect
activation of macrophages (MAC-2 positive cells per field) [3]: significantly inhibited
TNFα induced IKK activation in keratinocytes (IKK): significantly reduced
concentration exhibiting the strongest inhibition of IKK activation (lowest tested) (IKK): 0.1 mg/mL
cytokine secretion from LPS and TNFα activated keratinocytes (activated keratinocytes): decrease cytokine secretion
cytokine secretion from IL-17A activated keratinocytes (activated keratinocytes): decrease cytokine secretion
cytokine secretion in keratinocytes stimulated by LPS, TNFα, or IL-17 (activated keratinocytes): effective in decreasing cytokine secretion
EAE severity (EAE mice): reduced EAE severity
EAE score / clinical symptoms compared to the control group (EAE mice; 0.1 mg/kg): lower score during most of the experiment days
The initial day (first illness signs) (EAE mice; [5]): 13 days
EAE score on the initial day (in brackets) (EAE mice; [5]): 1.000
Score on day 29 (EAE mice; 0.1 mg/kg i.p.): 2.000
Score on day 37 (EAE mice; 0.1 mg/kg i.p.): 1.500
The initial day (first illness signs) (EAE mice; [6]): 11 days
Number of dead mice during 49 days (EAE mice; 1 mg/kg i.p.): 2
EAE score on the initial day (in brackets) (EAE mice; 1 mg/kg i.p.): 0.214
redness, inflammation and pruritus compared with control over the time course [4]: significantly attenuated redness, inflammation and pruritus
